Measurements reported in paper PMC8286840, “Identifying SARS-CoV-2 antiviral compounds by screening for small molecule inhibitors of Nsp3 papain-like protease” (Biochemical Journal, 2021).
Where a name gives a salt, the structure may show the parent alone. Read-outs that look alike come from different tables or passages of the source.

What was measured:
[1] = target: T1, SARS-CoV-2 PLpro (nsp3 1564–1878) (Severe acute respiratory syndrome coronavirus 2, UniProt P0DTD1); assay: biochemical; design: FRET-quenched peptide (Pro3) cleavage by PLpro, 10 min pre-incubation, slope over 20 min, normalised to no-compound control; conditions: read-out: % of control remaining
[2] = target: T1, SARS-CoV-2 PLpro (nsp3 1564–1878); assay: biochemical; design: FRET-quenched peptide (Pro3) cleavage by PLpro, 10 min pre-incubation, slope over 20 min, normalised to no-compound control; conditions: read-out: % of control remaining; remark: listed apart in the source

CC1(C)CC(NC(=O)C(=O)Nc2ccc(Cl)cc2)CC(C)(C)N1 [N~1~-(4-chlorophenyl)-N~2~-(2,2,6,6-tetramethyl-4-piperidinyl)ethanediamide]
remaining activity at 1.25 µM ([1]; Well no.=6039, low concentration screen): 97.6%
remaining activity at 3.75 µM ([2]; Well no.=6039, high concentration screen): 101%

Nc1nc(OCc2ccccc2)c2nc[nH]c2n1 [O6-benzylguanine]
remaining activity at 1.25 µM ([1]; Well no.=123, low concentration screen): 106%
remaining activity at 3.75 µM ([2]; Well no.=123, high concentration screen): 105%

NOCC(=O)O [O-(Carboxymethyl)hydroxylamine hemihydrochloride]
remaining activity at 1.25 µM ([1]; Well no.=15, low concentration screen): 103%
remaining activity at 3.75 µM ([2]; Well no.=15, high concentration screen): 102%

CC(=O)OC[C@H](N)C(=O)O [O-Acetylserine]
remaining activity at 1.25 µM ([1]; Well no.=6965, low concentration screen): 101%
remaining activity at 3.75 µM ([2]; Well no.=6965, high concentration screen): 104%

COc1ccc2[nH]cc(CCN)c2c1 [O-Methylserotonin hydrochloride]
remaining activity at 1.25 µM ([1]; Well no.=1076, low concentration screen): 94%
remaining activity at 3.75 µM ([2]; Well no.=1076, high concentration screen): 97%

N[C@@H](COP(=O)(O)O)C(=O)O [O-Phospho-L-serine]
remaining activity at 1.25 µM ([1]; Well no.=806, low concentration screen): 98%
remaining activity at 1.25 µM ([1]; Well no.=6867, low concentration screen): 99.1%
remaining activity at 1.25 µM ([1]; Well no.=6956, low concentration screen): 101%
remaining activity at 3.75 µM ([2]; Well no.=806, high concentration screen): 95.7%
remaining activity at 3.75 µM ([2]; Well no.=6867, high concentration screen): 99.4%
remaining activity at 3.75 µM ([2]; Well no.=6956, high concentration screen): 101%

CCN(CCCCO)C(C)Cc1ccc(O)cc1 (centres unmarked) [O-desmethyl Mebeverine alcohol (hydrochloride)]
remaining activity at 1.25 µM ([1]; Well no.=8489, low concentration screen): 94.7%
remaining activity at 3.75 µM ([2]; Well no.=8489, high concentration screen): 99.4%

Cc1c(Cc2ccc3ccccc3n2)c2cc(F)ccc2n1CC(=O)O [OC000459]
remaining activity at 1.25 µM ([1]; Well no.=7765, low concentration screen): 108%
remaining activity at 3.75 µM ([2]; Well no.=7765, high concentration screen): 105%

COc1cc(C(=O)N(CCCc2ccccc2)Cc2ccc(CC(=O)O)cc2)cc(OC)c1C [ONO-7300243]
remaining activity at 1.25 µM ([1]; Well no.=7711, low concentration screen): 101%
remaining activity at 3.75 µM ([2]; Well no.=7711, high concentration screen): 103%

CC(C(=O)Nc1cc(C#N)ccc1CCCC(=O)O)c1ccc(F)c2ccccc12 (centres unmarked) [ONO-AE3-208]
remaining activity at 1.25 µM ([1]; Well no.=7279, low concentration screen): 98.9%
remaining activity at 3.75 µM ([2]; Well no.=7279, high concentration screen): 94.1%

COc1ccc(C[C@H](NC(=O)[C@H](C)NC(=O)CN2CCOCC2)C(=O)N[C@@H](Cc2ccccc2)C(=O)[C@@]2(C)CO2)cc1 [ONX-0914 (PR-957)]
remaining activity at 1.25 µM ([1]; Well no.=9126, low concentration screen): 90%
remaining activity at 3.75 µM ([2]; Well no.=9126, high concentration screen): 93.6%

COc1cccc2cc(-c3nc([C@H]4CC[C@H](C(=O)O)CC4)n4ncnc(N)c34)[nH]c12 [OSI-027]
remaining activity at 1.25 µM ([1]; Well no.=4960, low concentration screen): 99.2%
remaining activity at 3.75 µM ([2]; Well no.=4960, high concentration screen): 95.6%

C#Cc1cccc(Nc2ncnc3cc(OCCOC)c(OCCO)cc23)c1 [OSI-420]
remaining activity at 1.25 µM ([1]; Well no.=4822, low concentration screen): 99.2%
remaining activity at 1.25 µM ([1]; Well no.=5152, low concentration screen): 102%
remaining activity at 3.75 µM ([2]; Well no.=4822, high concentration screen): 101%
remaining activity at 3.75 µM ([2]; Well no.=5152, high concentration screen): 97.4%

O=C(Nc1ccc(OC(F)(F)F)cc1)c1sccc1NCc1ccnc2ccccc12 [OSI-930]
remaining activity at 1.25 µM ([1]; Well no.=4755, low concentration screen): 105%
remaining activity at 3.75 µM ([2]; Well no.=4755, high concentration screen): 103%

CNC(=O)CCc1cc(-c2ccc(-c3ccc(C(F)(F)F)cc3)cc2)nn1-c1ccc(N2CCNCC2)cc1 [OSU-T315]
remaining activity at 1.25 µM ([1]; Well no.=7022, low concentration screen): 92.9%
remaining activity at 3.75 µM ([2]; Well no.=7022, high concentration screen): 93.8%

COC1=CC(c2cc3ccccc3[nH]2)=N/C1=C\c1[nH]c(C)cc1C [Obatoclax mesylate (GX15-070)]
remaining activity at 1.25 µM ([1]; Well no.=4619, low concentration screen): 95.3%
remaining activity at 3.75 µM ([2]; Well no.=4619, high concentration screen): 98.7%

CC[C@H]1[C@@H](O)[C@@H]2[C@H](CC[C@]3(C)[C@@H]([C@H](C)CCC(=O)O)CC[C@@H]23)[C@@]2(C)CC[C@@H](O)C[C@@H]12 [Obeticholic Acid]
remaining activity at 1.25 µM ([1]; Well no.=8720, low concentration screen): 90.8%
remaining activity at 3.75 µM ([2]; Well no.=8720, high concentration screen): 93%

C[C@@H]1Cc2c(Cl)cc(C(=O)N[C@@H](Cc3ccccc3)C(=O)O)c(O)c2C(=O)O1 [Ochratoxin A]
remaining activity at 1.25 µM [1]: 92.5%
remaining activity at 3.75 µM [2]: 92.8%

CCCCCCCCCCCCCCCCCC(=O)O [Octadecanoic acid]
remaining activity at 1.25 µM ([1]; Well no.=4314, low concentration screen): 101%
remaining activity at 3.75 µM ([2]; Well no.=4314, high concentration screen): 96.8%

O=C(O)CCCCCCC(=O)O [Octanedioic acid]
remaining activity at 1.25 µM ([1]; Well no.=6931, low concentration screen): 108%
remaining activity at 3.75 µM ([2]; Well no.=6931, high concentration screen): 103%

CCCCCCCC(=O)O [Octanoic acid]
remaining activity at 1.25 µM ([1]; Well no.=6591, low concentration screen): 104%
remaining activity at 3.75 µM ([2]; Well no.=6591, high concentration screen): 110%

NCC(O)c1ccc(O)cc1 (centres unmarked) [Octopamine (hydrochloride)]
remaining activity at 1.25 µM ([1]; Well no.=6713, low concentration screen): 98.8%
remaining activity at 3.75 µM ([2]; Well no.=6713, high concentration screen): 98.6%
